From patent publication US12077503B2, “Substituted cyclic amides and their use as herbicides” (FMC CORPORATION, priority 2015, dated 2024)

How the values were obtained:
Test in all cases: Test C preemergence
Type in all cases: in vivo
[1] = tested on: blackgrass (Alopecurus myosuroides); conditions: for Plant response rating, Blackgrass: scale 0 to 100, 0 no effect, 100 complete control
How it was run: (§1)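 Preemergence: sow in loam-sand soil and treat. Postemergence: grow in peat-moss/vermiculite medium to 2–18 cm (1–4 leaves) and spray. Compound in non-phytotoxic solvent with surfactant; keep in greenhouse 13–15 d; score visually against controls, 0 (none) to 100 (full control).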

[2] = tested on: ragweed (common ragweed, Ambrosia elatior); conditions: for Plant response rating, Ragweed: scale 0 to 100, 0 no effect, 100 complete control
How it was run: as §1

[3] = tested on: johnsongrass (Sorghum halepense); conditions: for Plant response rating, Johnsongrass: scale 0 to 100, 0 no effect, 100 complete control
How it was run: as §1

[4] = tested on: ryegrass, Italian (Italian ryegrass, Lolium multiflorum); conditions: for Plant response rating, Ryegrass, Italian: scale 0 to 100, 0 no effect, 100 complete control
How it was run: as §1

[5] = tested on: morningglory (Ipomoea coccinea); conditions: for Plant response rating, Morningglory: scale 0 to 100, 0 no effect, 100 complete control
How it was run: as §1

[6] = tested on: oilseed rape (Brassica napus); conditions: for Plant response rating, Oilseed Rape: scale 0 to 100, 0 no effect, 100 complete control
How it was run: as §1

[7] = tested on: wheat (winter wheat, Triticum aestivum); conditions: for Plant response rating, Wheat: scale 0 to 100, 0 no effect, 100 complete control
How it was run: as §1

[8] = tested on: foxtail, giant (giant foxtail, Setaria faberii); conditions: for Plant response rating, Foxtail, Giant: scale 0 to 100, 0 no effect, 100 complete control
How it was run: as §1

[9] = tested on: pigweed (Amaranthus retroflexus); conditions: for Plant response rating, Pigweed: scale 0 to 100, 0 no effect, 100 complete control
How it was run: as §1

[10] = tested on: lambsquarters (Chenopodium album); conditions: for Plant response rating, Lambsquarters: scale 0 to 100, 0 no effect, 100 complete control
How it was run: as §1

[11] = tested on: waterhemp (common waterhemp, Amaranthus rudis); conditions: for Plant response rating, Waterhemp: scale 0 to 100, 0 no effect, 100 complete control
How it was run: as §1

[12] = tested on: nutsedge, yellow (yellow nutsedge, Cyperus esculentus); conditions: for Plant response rating, Nutsedge, Yellow: scale 0 to 100, 0 no effect, 100 complete control
How it was run: as §1

[13] = tested on: soybean (Glycine max); conditions: for Plant response rating, Soybean: scale 0 to 100, 0 no effect, 100 complete control
How it was run: as §1

[14] = tested on: barnyardgrass (Echinochloa crus-galli); conditions: for Plant response rating, Barnyardgrass: scale 0 to 100, 0 no effect, 100 complete control
How it was run: as §1

[15] = tested on: crabgrass, large (large crabgrass, Digitaria sanguinalis); conditions: for Plant response rating, Crabgrass, Large: scale 0 to 100, 0 no effect, 100 complete control
How it was run: as §1

[16] = tested on: Galium (catchweed bedstraw, Galium aparine); conditions: for Plant response rating, Galium: scale 0 to 100, 0 no effect, 100 complete control
How it was run: as §1

[17] = tested on: velvetleaf (Abutilon theophrasti); conditions: for Plant response rating, Velvetleaf: scale 0 to 100, 0 no effect, 100 complete control
How it was run: as §1

[18] = tested on: corn (Zea mays); conditions: for Plant response rating, Corn: scale 0 to 100, 0 no effect, 100 complete control
How it was run: as §1

[19] = 31 g ai/ha, 0 is no effect, 100 is complete control

For `CN1C[C@H](c2ccc(F)c(F)c2)[C@@H](C(=O)Nc2ccccc2F)C1=O` [Compound 596, (3S,4S)-4-(3,4-difluorophenyl)-N-(2-fluorophenyl)-1-methyl-2-oxo-3-pyrrolidinecarboxamide], the “Plant response rating (scale of 0 to 100), Blackgrass” value [1, 19] was 0, the “Plant response rating, Blackgrass” value ([1]; 62 g ai/ha) was 40 and the “Plant response rating, Blackgrass” value ([1]; 125 g ai/ha) was 70. The “Plant response rating, Blackgrass” value ([1]; 250 g ai/ha) was 90, the “Plant response rating (scale of 0 to 100), Ragweed” value [2, 19] was 10 and the “Plant response rating, Ragweed” value ([2]; 62 g ai/ha) was 20. For the same molecule, the “Plant response rating, Ragweed” value ([2]; 125 g ai/ha) was 50, the “Plant response rating, Ragweed” value ([2]; 250 g ai/ha) was 75 and the “Plant response rating (scale of 0 to 100), Johnsongrass” value [3, 19] was 20. The “Plant response rating, Johnsongrass” value ([3]; 62 g ai/ha) was 25, the “Plant response rating, Johnsongrass” value ([3]; 125 g ai/ha) was 70 and the “Plant response rating, Johnsongrass” value ([3]; 250 g ai/ha) was 75. The “Plant response rating (scale of 0 to 100), Ryegrass, Italian” value [4, 19] was 0, the “Plant response rating, Ryegrass, Italian” value ([4]; 62 g ai/ha) was 0 and the “Plant response rating, Ryegrass, Italian” value ([4]; 125 g ai/ha) was 30. For the same molecule, the “Plant response rating, Ryegrass, Italian” value ([4]; 250 g ai/ha) was 45, the “Plant response rating (scale of 0 to 100), Morningglory” value [5, 19] was 0 and the “Plant response rating, Morningglory” value ([5]; 62 g ai/ha) was 0. For the same molecule, the “Plant response rating, Morningglory” value ([5]; 125 g ai/ha) was 10, the “Plant response rating, Morningglory” value ([5]; 250 g ai/ha) was 20 and the “Plant response rating (scale of 0 to 100), Oilseed Rape” value [6, 19] was 0. The “Plant response rating, Oilseed Rape” value ([6]; 62 g ai/ha) was 0, the “Plant response rating, Oilseed Rape” value ([6]; 125 g ai/ha) was 30 and the “Plant response rating, Oilseed Rape” value ([6]; 250 g ai/ha) was 90. The “Plant response rating (scale of 0 to 100), Wheat” value [7, 19] was 15, the “Plant response rating, Wheat” value ([7]; 62 g ai/ha) was 45 and the “Plant response rating, Wheat” value ([7]; 125 g ai/ha) was 50. The “Plant response rating, Wheat” value ([7]; 250 g ai/ha) was 70, the “Plant response rating (scale of 0 to 100), Foxtail, Giant” value [8, 19] was 90 and the “Plant response rating, Foxtail, Giant” value ([8]; 62 g ai/ha) was 90. For the same molecule, the “Plant response rating, Foxtail, Giant” value ([8]; 125 g ai/ha) was 95, the “Plant response rating, Foxtail, Giant” value ([8]; 250 g ai/ha) was 100 and the “Plant response rating (scale of 0 to 100), Pigweed” value [9, 19] was 20. The “Plant response rating, Pigweed” value ([9]; 62 g ai/ha) was 25, the “Plant response rating, Pigweed” value ([9]; 125 g ai/ha) was 40 and the “Plant response rating, Pigweed” value ([9]; 250 g ai/ha) was 55. For the same molecule, the “Plant response rating (scale of 0 to 100), Lambsquarters” value [10, 19] was 10, the “Plant response rating, Lambsquarters” value ([10]; 62 g ai/ha) was 60 and the “Plant response rating, Lambsquarters” value ([10]; 125 g ai/ha) was 70. For the same molecule, the “Plant response rating, Lambsquarters” value ([10]; 250 g ai/ha) was 75, the “Plant response rating (scale of 0 to 100), Waterhemp” value [11, 19] was 0 and the “Plant response rating, Waterhemp” value ([11]; 62 g ai/ha) was 0. The “Plant response rating, Waterhemp” value ([11]; 125 g ai/ha) was 25, the “Plant response rating, Waterhemp” value ([11]; 250 g ai/ha) was 65 and the “Plant response rating (scale of 0 to 100), Nutsedge, Yellow” value [12, 19] was 0. For the same molecule, the “Plant response rating, Nutsedge, Yellow” value ([12]; 62 g ai/ha) was 0, the “Plant response rating, Nutsedge, Yellow” value ([12]; 125 g ai/ha) was 0 and the “Plant response rating, Nutsedge, Yellow” value ([12]; 250 g ai/ha) was 0. The “Plant response rating (scale of 0 to 100), Soybean” value [13, 19] was 0, the “Plant response rating, Soybean” value ([13]; 62 g ai/ha) was 0 and the “Plant response rating, Soybean” value ([13]; 125 g ai/ha) was 0. The “Plant response rating, Soybean” value ([13]; 250 g ai/ha) was 100, the “Plant response rating (scale of 0 to 100), Barnyardgrass” value [14, 19] was 90 and the “Plant response rating, Barnyardgrass” value ([14]; 62 g ai/ha) was 95. The “Plant response rating, Barnyardgrass” value ([14]; 125 g ai/ha) was 95, the “Plant response rating, Barnyardgrass” value ([14]; 250 g ai/ha) was 95 and the “Plant response rating (scale of 0 to 100), Crabgrass, Large” value [15, 19] was 95. The “Plant response rating, Crabgrass, Large” value ([15]; 62 g ai/ha) was 100, the “Plant response rating, Crabgrass, Large” value ([15]; 125 g ai/ha) was 100 and the “Plant response rating, Crabgrass, Large” value ([15]; 250 g ai/ha) was 100. For the same molecule, the “Plant response rating (scale of 0 to 100), Galium” value [16, 19] was 30, the “Plant response rating, Galium” value ([16]; 62 g ai/ha) was 85 and the “Plant response rating, Galium” value ([16]; 125 g ai/ha) was 40. The “Plant response rating, Galium” value ([16]; 250 g ai/ha) was 85, the “Plant response rating (scale of 0 to 100), Velvetleaf” value [17, 19] was 10 and the “Plant response rating, Velvetleaf” value ([17]; 62 g ai/ha) was 20. For the same molecule, the “Plant response rating, Velvetleaf” value ([17]; 125 g ai/ha) was 30, the “Plant response rating, Velvetleaf” value ([17]; 250 g ai/ha) was 55 and the “Plant response rating (scale of 0 to 100), Corn” value [18, 19] was 0. For the same molecule, the “Plant response rating, Corn” value ([18]; 62 g ai/ha) was 0, the “Plant response rating, Corn” value ([18]; 125 g ai/ha) was 0 and the “Plant response rating, Corn” value ([18]; 250 g ai/ha) was 35.
